Results: patent US20100226889A1, “HCV Combination Therapies” (priority 2007, published 2010)
“Also recorded” adds a separate entry of the source.

What was measured:
[1] = Randomized, double-blind, placebo-controlled single-dose escalation study in healthy male volunteers; type: in vivo, human; conditions: single doses, 25 mg to 1250 mg
Protocol: Doses of 25 mg to 1250 mg were evaluated.

[2] = test system: VX-950-resistant variants of HCV; experiment: IC50 shift of VX-950-resistant variants
[3] = Oral bioavailability of VX-950 (statement); conditions: in vivo
genotype 1 HCV = conditions: PROVE 1
HCV genotype 1 = experiment: Phase 1b trial, Study VX04-950-101; conditions: subjects infected with HCV genotype 1

Structure (SMILES): CCC[C@H](NC(=O)[C@@H]1[C@H]2CCC[C@H]2CN1C(=O)[C@@H](NC(=O)[C@@H](NC(=O)c1cnccn1)C1CCCCC1)C(C)(C)C)C(=O)C(=O)NC1CC1 [VX-950]
- serious / severe adverse events [1]: No serious adverse events were reported; also recorded: No adverse events were considered to be severe
- tolerability [1]: well tolerated at all dose levels
- increase in IC50 [2]: 7-20 fold
- oral bioavailability [3]: orally bioavailable
- pharmacokinetics of telaprevir among the different racial/ethnic groups (genotype 1 HCV): No differences were observed
- antiviral activity (HCV genotype 1): substantial antiviral activity
